Converted amounts (≈) assume the structure as drawn.
Conditions: buffer; pH 7.4; 200.0 µM
In the case of `COc1cc(NC(=O)C(=O)N2CCN(C)CC2)c(OC)cc1Cl`, the solubility kinetic is reported as > 51.3 µg/mL. Work on `COc1ccccc1C1CCN(Cc2ccccc2)CC1` yielded a solubility kinetic of 31.1 µg/mL (≈ 111 µM). For `Cc1cc(OCC(=O)NC2CCN(C)CC2)ccc1[N+](=O)[O-]`, the solubility kinetic was > 46.1 µg/mL. For `S=C(NCc1ccccc1)N1CCN(c2ccccc2)CC1`, the solubility kinetic was 0.5 µg/mL (≈ 1.61 µM). Work on `CNC(=O)COc1ccc2oc3c(c2c1)CCCC3` yielded a solubility kinetic of 31 µg/mL (≈ 120 µM). `CCC(C)c1ccc(S(=O)(=O)Nc2cccnc2)cc1.Cl` (stereo unspecified) showed a solubility kinetic of 35.9 µg/mL. For `CN(C)/C=C/C(=O)c1ccc([N+](=O)[O-])c(CS(=O)(=O)c2ccccc2)c1`, the solubility kinetic was > 56.2 µg/mL. For `CCOC(=O)C1CCCN(S(=O)(=O)c2ccc3ccccc3c2)C1` (stereo unspecified), the solubility kinetic was 13 µg/mL (≈ 37.4 µM). With `CCc1ccccc1NC(=O)CN(C)C(=O)COC(=O)c1cccnc1Cl` the solubility kinetic was > 58.5 µg/mL. In the case of `Cc1ccc[n+](CC(=O)c2ccc(Cl)cc2)c1.[Cl-]`, the solubility kinetic is reported as > 42.3 µg/mL. For `N#CC1=C(N)NC(=S)C(C(N)=O)C1c1ccc(Cl)cc1Cl` (stereo unspecified), the solubility kinetic was 11.7 µg/mL (≈ 34.3 µM). In the case of `CC(C(=O)NC1CCCC1)N1CCN(Cc2ccccc2)CC1` (stereo unspecified), the solubility kinetic is reported as > 47.3 µg/mL. In the case of `CCCCN(CCCC)CCCOC(=O)c1ccc(N)cc1`, the solubility kinetic is reported as > 46 µg/mL. For `CSc1ccc(S(=O)(=O)NC2CC2)cc1`, the solubility kinetic was > 36.5 µg/mL. With `CN1CCCN(C(=O)CNC(=O)c2ccccc2Br)CC1` the solubility kinetic was > 53.1 µg/mL. With `NNC(=O)c1oc2ccccc2c1-n1cccc1` the solubility kinetic was > 36.2 µg/mL. In the case of `COc1cc(C(=O)OC(C)C(=O)Nc2ccc3c(c2)OCCO3)cc(OC)c1OC` (stereo unspecified), the solubility kinetic is reported as 7.2 µg/mL (≈ 17.2 µM). In the case of `CCc1nn(C)c(N)c1C.Cl`, the solubility kinetic is reported as > 26.3 µg/mL. Molecule `O=C1c2cccc3c([N+](=O)[O-])ccc(c23)C(=O)N1CCc1ccccn1` has a solubility kinetic of 0.4 µg/mL (≈ 1.15 µM). Molecule `Cc1c(C(=O)Nc2ccccn2)sc2nc3n(c(=O)c12)CCC3` has a solubility kinetic of 32.9 µg/mL (≈ 101 µM). Work on `CCCc1cc(=O)[nH]c(SCC(=O)c2c(N)n(C3CC3)c(=O)[nH]c2=O)n1` yielded a solubility kinetic of 30.7 µg/mL (≈ 81.3 µM). With `O=C(OCC(=O)N1CCCC1=O)c1ccc(O)cc1O` the solubility kinetic was > 41.9 µg/mL. In the case of `O=C(CCc1nc2ccccc2s1)N1CCN(c2ccccc2)CC1`, the solubility kinetic is reported as > 52.7 µg/mL. For `CCOc1ncccc1C(=O)Nc1nnc(C2CC2)s1`, the solubility kinetic was > 43.6 µg/mL. In the case of `O=C(CN1C(=O)C2CCCCC2C1=O)Nc1nccs1` (stereo unspecified), the solubility kinetic is reported as > 44 µg/mL. In the case of `O=C(CSc1ccc([N+](=O)[O-])cc1)OCC(=O)N1CCCC1=O`, the solubility kinetic is reported as 50.3 µg/mL (≈ 149 µM). `CC(C)CCNC(=O)c1cc2c(=O)n3ccccc3nc2s1` showed a solubility kinetic of 4.6 µg/mL (≈ 14.6 µM). In the case of `CN(C)CCNC(=S)Nc1ccccc1C(C)(C)C`, the solubility kinetic is reported as > 41.9 µg/mL. `CCc1nc2ccc(C(=O)N3CCN(CC)CC3)cc2nc1CC` showed a solubility kinetic of 48.6 µg/mL (≈ 149 µM). In the case of `CC(C)N1CC(COc2ccc(Cl)cc2Cl)OC1=O` (stereo unspecified), the solubility kinetic is reported as > 45.6 µg/mL. Work on `S=C(NCCc1ccccc1)Nc1c(Cl)cccc1Cl` yielded a solubility kinetic of 44.3 µg/mL (≈ 136 µM). With `Cc1noc(C)c1C(=O)OCC(=O)N(C)C1CCS(=O)(=O)C1` (stereo unspecified) the solubility kinetic was > 49.6 µg/mL. In the case of `CN(C)/N=C/c1ccc(N2CCOCC2)cc1`, the solubility kinetic is reported as > 35 µg/mL. In the case of `CC1CCCN(C(=O)C2CCN(S(=O)(=O)c3ccccc3)CC2)C1` (stereo unspecified), the solubility kinetic is reported as > 52.6 µg/mL. For `CC1CCCCN1CC(O)c1c[nH]c2ccccc12` (stereo unspecified), the solubility kinetic was > 38.8 µg/mL. Work on `O=C(/C=C/c1ccco1)Nc1scc(-c2ccccc2)c1C(=O)O` yielded a solubility kinetic of 48.9 µg/mL (≈ 144 µM). For `CN(C)C(=O)c1cnc(-c2ccccc2)nc1-c1ccccc1`, the solubility kinetic was > 45.5 µg/mL. For `CSCC(CO)NS(=O)(=O)c1ccc(C)cc1` (stereo unspecified), the solubility kinetic was > 41.3 µg/mL. In the case of `CC(=O)O.CC1=CC(C)C(/C=N/N=C(N)N)C(C)C1` (stereo unspecified), the solubility kinetic is reported as > 40.3 µg/mL. With `CCOc1ccc(S(=O)(=O)N2CCOCC2)cc1[N+](=O)[O-]` the solubility kinetic was > 47.4 µg/mL. `Cc1ccc2ccc(C)[n+](CCCS(=O)(=O)[O-])c2c1` showed a solubility kinetic of 12.4 µg/mL (≈ 44.4 µM). In the case of `O=C(NCc1csc(-c2cccs2)n1)C1CC1`, the solubility kinetic is reported as 34.3 µg/mL (≈ 130 µM). Work on `O=C(NC1=NCCS1)c1cc(Cl)ccc1Cl` yielded a solubility kinetic of 37.1 µg/mL (≈ 135 µM). `Cc1ccc(NC(=S)N2CCC(NC(=O)c3ccccc3)CC2)cc1` showed a solubility kinetic of 8.8 µg/mL (≈ 24.9 µM). `COc1ccc(OCCCCn2c(CO)nc3ccccc32)cc1` showed a solubility kinetic of 45.4 µg/mL (≈ 139 µM). Work on `CCOC(=O)c1c(C)[nH]c(C(=O)NCc2ccccn2)c1C` yielded a solubility kinetic of 15.5 µg/mL (≈ 51.4 µM). For `O=C(Cc1ccccc1)Nc1ccc(Cl)cn1`, the solubility kinetic was 21.5 µg/mL (≈ 87.2 µM). For `CCN(CC)c1ccc(CNc2ccc3c(c2)ncn3CC)cc1`, the solubility kinetic was 21.9 µg/mL (≈ 67.9 µM). With `CC1(C)CC(=O)C2=C(C1)Nc1ccccc1S2` the solubility kinetic was 3 µg/mL (≈ 12.2 µM). For `CSc1ncc(Cl)c(C(=O)NCc2cccnc2)n1`, the solubility kinetic was > 44.2 µg/mL. `COc1cc(OC)c(C2CC(=O)N3CN(C)CSC3=C2C#N)cc1OC` (stereo unspecified) showed a solubility kinetic of 43.3 µg/mL (≈ 115 µM). Work on `CC(=O)c1ccc(-n2cc(C#N)c(=O)[nH]c2=O)cc1` yielded a solubility kinetic of 34.7 µg/mL (≈ 136 µM). For `OCCNC(=S)Nc1cccc(Cl)c1Cl`, the solubility kinetic was > 39.8 µg/mL. In the case of `CN(C)C(=S)Nc1ccc2c(c1)OCCO2`, the solubility kinetic is reported as > 35.7 µg/mL. With `Cc1cccc(NC(=S)N2CCCCC2c2cccnc2)c1C` (stereo unspecified) the solubility kinetic was > 48.8 µg/mL. `CC(C)CCN1CCN(Cc2cc3ccccc3[nH]2)CC1CCO` (stereo unspecified) showed a solubility kinetic of 39.3 µg/mL (≈ 119 µM). With `CC(C)c1cc(NCc2ccccn2)n2c(nc3ccccc32)c1C#N` the solubility kinetic was < 0.1 µg/mL. For `O=C(Cc1csc(NC(=O)c2ccc(F)cc2)n1)NO`, the solubility kinetic was > 44.3 µg/mL. With `COc1ccc(CN(C)CC(=O)NC(=O)NC2CCCCC2)cc1` the solubility kinetic was > 50 µg/mL. For `Cc1ccc(NC(=S)NCc2ccccc2)cc1C`, the solubility kinetic was 5.1 µg/mL (≈ 18.9 µM). `Cc1nc(C(F)(F)F)ccc1C(=O)Nc1ccc2ccccc2n1` showed a solubility kinetic of 3.3 µg/mL (≈ 9.96 µM).

Source: PubChem BioAssay AID1996
